The text below walks through data of US10597403B2, “Condensed cyclic compound, composition including the condensed cyclic compound, organic light-emitting device including the condensed cyclic compound, and method of manufacturing the organic light-emitting device” (SAMSUNG ELECTRONICS CO., LTD., priority 2015, dated 2020).

A short description of data set [1]: Measurement of solubility in xylene. In kind it is physicochemical. Conditions: for Solubility (xylene) / solubility: solvent xylene; for solubility: result in words. The protocol:
(§1) The glass transition temperature (Tg) and solubility of Compounds 1-5, 1-23, 1-24, and 1-79 were measured. In measuring the solubility, xylene was used as a solvent. The glass transition temperature (Tg) and solubility of each compound is written under each compound number.

Data set [2] in a line: Measurement of glass transition temperature (Tg), scanning calorimetry, JIS K 7121, SII DSC6220. Type of data set: physicochemical. To be noted: for heat resistance: result in words, from Tg. The protocol: The glass transition temperature may be measured by a method defined in JIS K 7121 or ISO 3146 corresponding thereto. In the following examples, the glass transition temperature was measured by a scanning calorimetric measurement method.
In an argon atmosphere, 2.20 g (5.52 mmol) of Intermediate a, 3.30 g (4.97 mmol) of Intermediate b, 0.078 g (0.11 mmol) of dichlorobis(triphenylphosphine)dipalladium, 55 mL of dioxane, and 28 mL of a 0.5 N sodium carbonate aqueous solution were added to a reaction vessel, and the mixture was stirred at a temperature of 90° C. for 8 hours. After the reaction was completed, the resultant mixture was cooled to room temperature and filtered by using celite. An organic layer obtained therefrom was concentrated and purified by column chromatography, thereby completing the preparation of Compound 1-7 (synthesized amount: 2.97 g, yield: 69.9%) (the structure thereof was identified by LC-MS). A measurement of a glass transition temperature (Tg) was performed based on JIS K 7121 by using SII DSC6220 (manufactured by Seiko Instruments Inc.).
as §1

Regarding `c1ccc(-c2cc(-c3ccccc3)cc(-c3cccc(-c4nc(-c5ccccc5)nc(-c5cccc(-c6cccc7c6c6cc(-c8ccccc8)ccc6n7-c6ccccc6)c5)n4)c3)c2)cc1` [Compound 1-7], the “Solubility (xylene)” value in data set [1] was above 10 wt %. In addition, the “soluble in a hydrocarbon-based solvent” value in data set [1] (toluene or xylene) is reported as “soluble”.
As to `c1ccc(-c2cc(-c3ccccc3)cc(-c3cccc(-c4nc(-c5ccccc5)nc(-c5cccc(-c6ccc7c(c6)c6cc(-c8ccccc8)ccc6n7-c6ccccc6)c5)n4)c3)c2)cc1` [Compound 1-79], the heat resistance result in data set [2] was “excellent”. Moreover, the solubility result in data set [1] was “excellent”.
Consider `c1ccc(-c2cc(-c3ccccc3)cc(-c3cccc(-c4cc(-c5ccccc5)nc(-c5cccc(-c6cccc7c6c6cc(-c8ccccc8)ccc6n7-c6ccccc6)c5)n4)c3)c2)cc1` [Compound 1-5], for which the heat resistance result in data set [2] is “excellent”. The solubility entry in data set [1] is reported as “excellent”.
`c1ccc(-c2cc(-c3ccccc3)cc(-c3cccc(-n4c5ccccc5c5cc(-c6ccc7c(c6)c6cc(-c8ccccc8)ccc6n7-c6ccccc6)ccc54)c3)c2)cc1` [Compound 6-5]: in data set [2] (JIS K 7121, SII DSC6220), the “Tg (glass transition temperature)” value worked out at 156.6 °C. Further, the “Solubility (xylene)” value in data set [1] is given as above 10 wt %.
